Laboratory results from ChEMBL document CHEMBL4842382, “Fragment-Based Discovery of Small Molecules Bound to T-Cell Immunoglobulin and Mucin Domain-Containing Molecule 3 (TIM-3)” (J Med Chem, 2021).
pIC50, pKd, pKi: −log10 of the molar value.

Biological target: T1, Hepatitis A virus cellular receptor 2 (Homo sapiens, UniProt Q8TDQ0)
T1 sequence (Q8TDQ0 whole entry): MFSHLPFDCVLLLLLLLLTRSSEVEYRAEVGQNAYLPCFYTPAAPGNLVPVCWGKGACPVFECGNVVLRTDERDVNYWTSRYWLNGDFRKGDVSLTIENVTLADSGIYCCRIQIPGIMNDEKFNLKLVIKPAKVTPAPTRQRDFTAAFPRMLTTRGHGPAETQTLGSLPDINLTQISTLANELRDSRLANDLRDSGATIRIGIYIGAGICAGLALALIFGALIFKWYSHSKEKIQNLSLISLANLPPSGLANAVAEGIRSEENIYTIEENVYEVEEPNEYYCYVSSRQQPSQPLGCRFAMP
Conditions: not given

| pKd | SMILES |
| --- | --- |
| 5.00 | Cc1nc2c3cc(-c4ccncc4C)c(Cl)cc3[nH]c(=O)n2n1 |
| 3.07 | Cc1ccc(Nc2ncnc3c2cnn3C)cc1 |
| 3.34 | Cc1cc(-c2nc3ncccc3o2)ccc1N |

Second part, the molecule before the results:

| SMILES | pKd |
| --- | --- |
| Cc1cccc(Nc2cc(=O)n(C)c(=O)n2C)c1 | 2.85 |
| Sc1nc2cc(Cl)ccc2[nH]1 | 3.17 |
| O=C1CC(c2ccccc2)c2cc3c(cc2N1)OCO3 (stereo not drawn) | < 2.70 |
| CN(C)CCn1c(=S)[nH]c2ccccc2c1=O | 3.28 |
| Oc1nc2ccccc2c2nc(-c3ccccc3)nn12 | < 2.70 |

System: not listed separately
Assay: Aqueous solubility of the compound
Type: physicochemical
Conditions: buffer

| solubility | SMILES |
| --- | --- |
| Insoluble | Cc1nc2c3cc(Br)ccc3[nH]c(=O)n2n1 |
| Insoluble | Oc1nc2ccccc2c2nc(-c3ccccc3)nn12 |
| Insoluble | Cc1nc2c3cc(-c4ccncc4C)ccc3[nH]c(=O)n2n1 |

Biological target: T1, Hepatitis A virus cellular receptor 2
Assay: Displacement of FITC-labelled 5-(((8-Chloro-9-(3-methylpyridin-4-yl)-5-oxo-5,6-dihydro-[1,2,4]triazolo[1,5-c]quinazolin-2-yl)methyl)carbamoyl)-2-(6-hydroxy-3-oxo-3H-xanthen-9-yl)benzoic acid probe from human TIM-3 IgV domain (residues 22 to 130) expressed in Escherichia coli BL21 (DE3) by FPA competition assay
Conditions: not given

| pIC50 | pKi | SMILES |
| --- | --- | --- |
| 4.28 | 5.31 | Cc1nc2c3cc(-c4ccncc4C)c(Cl)cc3[nH]c(=O)n2n1 |
